{"source": "patent US11492405B2", "about": "“Reducing systemic regulatory t cell levels or activity for treatment of disease and injury of the CNS” (Yeda Research and Development Co. Ltd, priority 2014, dated 2022)", "type_in_all_cases": "in vivo, mouse", "key": {"5XFAD AD-Tg mice [1]": {"tested_on": "5XFAD AD-Tg mice", "experiment": "RT-qPCR of choroid plexus (CP) in 5XFAD AD-Tg mice", "description": "Total RNA of the hippocampal dentate gyrus (DG) was extracted with TRI Reagent (Molecular Research Center) and purified from the lysates using an RNeasy Kit (Qiagen). Total RNA of the choroid plexus was extracted using an RNA MicroPrep Kit (Zymo Research). mRNA (1 μg) was converted into cDNA using a High Capacity cDNA Reverse Transcription Kit (Applied Biosystems). The expression of specific mRNAs was assayed using fluorescence-based quantitative real-time PCR (RT-qPCR). RT-qPCR reactions were performed using Fast-SYBR PCR Master Mix (Applied Biosystems). Quantification reactions were performed in triplicate for each sample using the standard curve method. Peptidylprolyl isomerase A (ppia) was chosen as a reference (housekeeping) gene. The amplification cycles were 95° C. for 5 s, 60° C. for 20 s, and 72° C. for 15 s. […] For ifn-γ and ppia gene analysis, the cDNA was pre-amplified in 14 PCR cycles with non-random PCR primers, thereby increasing the sensitivity of the subsequent real-time PCR analysis, according to the manufacturer's protocol (PreAmp Master Mix Kit; Applied Biosystems). mRNA expression was determined using TaqMan RT-qPCR, according to the manufacturer's instructions (Applied Biosystems). All RT-qPCR reactions were performed and analyzed using StepOne software V2.2.2 (Applied Biosystems). […]"}, "5XFAD AD-Tg mice [2]": {"tested_on": "5XFAD AD-Tg mice", "experiment": "RT-qPCR of hippocampus / brain parenchyma in 5XFAD AD-Tg mice", "description": "Total RNA of the hippocampal dentate gyrus (DG) was extracted with TRI Reagent (Molecular Research Center) and purified from the lysates using an RNeasy Kit (Qiagen). Total RNA of the choroid plexus was extracted using an RNA MicroPrep Kit (Zymo Research). mRNA (1 μg) was converted into cDNA using a High Capacity cDNA Reverse Transcription Kit (Applied Biosystems). The expression of specific mRNAs was assayed using fluorescence-based quantitative real-time PCR (RT-qPCR). RT-qPCR reactions were performed using Fast-SYBR PCR Master Mix (Applied Biosystems). Quantification reactions were performed in triplicate for each sample using the standard curve method. Peptidylprolyl isomerase A (ppia) was chosen as a reference (housekeeping) gene. The amplification cycles were 95° C. for 5 s, 60° C. for 20 s, and 72° C. for 15 s. At the end of the assay, a melting curve was constructed to evaluate the specificity of the reaction. For ifn-γ and ppia gene analysis, the cDNA was pre-amplified in 14 PCR cycles with non-random PCR primers, thereby increasing the sensitivity of the subsequent real-time PCR analysis, according to the manufacturer's protocol (PreAmp Master Mix Kit; Applied Biosystems). mRNA expression was determined using TaqMan RT-qPCR, according to the manufacturer's instructions (Applied Biosystems). All RT-qPCR reactions were performed and analyzed using StepOne software V2.2.2 (Applied Biosystems). The following TaqMan Assays-on-Demand™ probes were used: Mm02342430_g1 (ppia) and Mm01168134_m1 (ifn-γ).\nFor all other genes examined, the following primers were used: […]"}, "5XFAD AD-Tg mice [3]": {"tested_on": "5XFAD AD-Tg mice", "experiment": "Immune cell / mo-Mϕ infiltration of brain in 5XFAD AD-Tg mice (flow cytometry, BM chimeras)", "description": "(§1) Tissue processing and immunohistochemistry were performed on paraffin embedded sectioned mouse (6 μm thick) and human (10 μm thick) brains. For human ICAM-1 staining, primary mouse anti-ICAM (1:20 Abcam; ab2213) antibody was used. Slides were incubated for 10 min with 3% H2O2, and a secondary biotin-conjugated anti-mouse antibody was used, followed by biotin/avidin amplification with Vectastain ABC kit (Vector Laboratories). Subsequently, 3,3′-diaminobenzidine (DAB substrate) (Zytomed kit) was applied; slides were dehydrated and mounted with xylene-based mounting solution. For tissue stainings, mice were transcardially perfused with PBS prior to tissue excision and fixation. CP tissues were isolated under a dissecting microscope (Stemi DV4; Zeiss) from the lateral, third, and fourth ventricles of the brain. For whole mount CP staining, tissues were fixated with 2.5% paraformaldehyde (PFA) for 1 hour at 4° C., and subsequently transferred to PBS containing 0.05% sodium azide. Prior to staining, the dissected tissues were washed with PBS and blocked (20% horse serum, 0.3% Triton X-100, and PBS) for 1 h at room temperature. Whole mount staining with primary antibodies (in PBS containing 2% horse serum and 0.3% Triton X-100), or secondary antibodies, was performed for 1 h at room temperature. Each step was followed by three washes in PBS. The tissues were applied to slides, mounted with Immu-mount (9990402, from Thermo Scientific), and sealed with cover-slips. For staining of sectioned brains, two different tissue preparation protocols (paraffin embedded or microtomed free-floating sections) were applied, as previously described (Baruch et al, 2013; Kunis et al, 2013). The following primary antibodies were used: mouse anti-Aβ (1:300, Covance, #SIG-39320); rabbit anti-GFP (1:100, MBL, #598); rat anti-CD68 (1:300, eBioscience, #14-0681); rat anti-ICAM-1 (1:200, Abcam, #AB2213); goat anti-GFP (1:100, Abcam, #ab6658); rabbit anti-IBA-1 (1:300, Wako, #019-19741); goat anti-IL-10 (1:20, R&D systems, #AF519); rat anti-Foxp3 (1:20, eBioscience, #13-5773-80); rabbit anti-CD3 (1:500, Dako, #IS503); mouse anti-ZO-1, mouse anti-E-Cahedrin, and rabbit anti-Claudin-1 (all 1:100, Invitrogen, #33-9100, #33-4000, #51-9000); rabbit anti-GFAP (1:200, Dako, #Z0334). […] Microscopic analysis, was performed using a fluorescence microscope (E800; Nikon) or laser-scanning confocal microscope (Carl Zeiss, Inc.). The fluorescence microscope was equipped with a digital camera (DXM 1200F; Nikon), and with either a 20×NA 0.50 or 40×NA 0.75 objective lens (Plan Fluor; Nikon). […] For quantification of staining intensity, total cell and background staining was measured using ImageJ software (NIH), and intensity of specific staining was calculated, as previously described (Burgess et al, 2010). […]"}, "5XFAD AD-Tg mice [4]": {"tested_on": "5XFAD AD-Tg mice", "experiment": "Aβ plaque quantitation (immunohistochemistry) in 5XFAD AD-Tg mice", "conditions": "AD-Tg/Foxp3-DTR+ mice, 3 weeks after last DTx injection", "description": "as §1, with “2013).” for “2013). The following primary antibodies were used: mouse anti-Aβ (1:300, Covance, #SIG-39320); rabbit anti-GFP (1:100, MBL, #598); rat anti-CD68 (1:300, eBioscience, #14-0681); rat anti-ICAM-1 (1:200, Abcam, #AB2213); goat anti-GFP (1:100, Abcam, #ab6658); rabbit anti-IBA-1 (1:300, Wako, #019-19741); goat anti-IL-10 (1:20, R&D systems, #AF519); rat anti-Foxp3 (1:20, eBioscience, #13-5773-80); rabbit anti-CD3 (1:500, Dako, #IS503); mouse anti-ZO-1, mouse anti-E-Cahedrin, and rabbit anti-Claudin-1 (all 1:100, Invitrogen, #33-9100, #33-4000, #51-9000); rabbit anti-GFAP (1:200, Dako, #Z0334).”\nFrom each brain, 6 μm coronal slices were collected, and eight sections per mouse, from four different pre-determined depths throughout the region of interest (dentate gyrus or cerebral cortex) were immunostained. […]"}, "[5]": {"conditions": "AD-Tg/Foxp3-DTR+ mice, 3 weeks after last DTx injection"}, "[6]": {"conditions": "weekly-GA vs untreated AD-Tg mice, age 6 m"}}, "note": "Entries after “also recorded” stand apart in the source; their conditions may differ.", "data": [{"substance": "Diphtheria toxin [DTx]", "values": [{"measurement": "CP mRNA expression of leukocyte trafficking molecules (icam1, cxcl10, ccl2)", "setting": "5XFAD AD-Tg mice [1]; AD-Tg/DTR+ vs DTx-treated AD-Tg/DTR− littermates, 1 day after last DTx injection", "value": "elevated mRNA expression"}, {"measurement": "foxp3 and il10 mRNA expression in hippocampus", "setting": "5XFAD AD-Tg mice [2]; [5]", "value": "increased expression"}, {"measurement": "mRNA expression of pro-inflammatory cytokines il-12p40 and tnf-α in brain parenchyma", "setting": "5XFAD AD-Tg mice [2]; [5]", "value": "reduced mRNA expression levels"}, {"measurement": "Foxp3+ Tregs among CD4+ T cells accumulated within the brain", "setting": "5XFAD AD-Tg mice [3]; [5]", "value": "marked enrichment"}, {"measurement": "numbers of CD45high/CD11bhigh mo-Mϕ and CD4+ T cells in brain parenchyma", "setting": "5XFAD AD-Tg mice [3]; [5]", "value": "increased numbers; also recorded: elevated numbers"}, {"measurement": "cerebral Aβ plaque burden in hippocampal dentate gyrus and cerebral cortex (5th layer)", "setting": "5XFAD AD-Tg mice [4]", "value": "reduced"}]}, {"substance": "Glatiramer acetate [GA]", "values": [{"measurement": "CP epithelial expression of leukocyte trafficking molecules (icam1, cxcl10, ccl2)", "setting": "5XFAD AD-Tg mice [1]; weekly-GA, end of 1st or 4th week", "value": "upregulated"}, {"measurement": "neuroinflammation (hippocampal mRNA)", "setting": "5XFAD AD-Tg mice [2]; weekly-GA 100 μg s.c. over 4 weeks, 5XFAD AD-Tg mice", "value": "reduced neuroinflammation"}, {"measurement": "hippocampal mRNA expression of anti-inflammatory cytokines IL-10 and TGF-β", "setting": "5XFAD AD-Tg mice [2]; [6]", "value": "elevation"}, {"measurement": "hippocampal mRNA expression of neurotropic factors IGF-1 and BDNF", "setting": "5XFAD AD-Tg mice [2]; [6]", "value": "elevation"}, {"measurement": "hippocampal mRNA expression of pro-inflammatory cytokines TNF-α, IL-1β and IL-12p40", "setting": "5XFAD AD-Tg mice [2]; [6]", "value": "reduced expression"}, {"measurement": "numbers of CD11bhighCD45high-expressing cells in hippocampus", "setting": "5XFAD AD-Tg mice [3]; 2nd week of weekly-GA regimen, non-chimeric AD-Tg mice", "value": "increased numbers"}, {"measurement": "homing of GFP+ mo-Mϕ to the CP and adjacent ventricular spaces", "setting": "5XFAD AD-Tg mice [3]; weekly-GA vs vehicle, AD-Tg/CX3CR1GFP/+ BM chimeras", "value": "increased homing"}]}]}
